How the values were obtained:
[1] = tested on: patients admitted for overt HE; experiment: Chart review of survival outcomes in patients admitted for overt HE; type: in vivo, human; conditions: for Survival Rates, One Year / Survival Rates, Six Months / Survival Rates, Three Years: overt HE patients; for Survival Rates, One Year: one year after discharge; for Survival Rates, Six Months: six months after discharge, RFX 1200 then 1100 mg/day, LAC 30-120 cc/day; for Survival Rates, Three Years: three years after discharge
Excerpt: The medical charts of outpatient and hospitalized patients admitted for overt HE were examined over a 137-month (about an 11.5-year) window. Information collected included gender, age, ethnicity, post discharge HE management protocol, HE hospitalization number (frequency) and time (days) to transplant or death. […] The lactulose dose (LAC) was 30-120 cc/day, adjusted to acquire two to three loose to soft bowel movements. Time from discharge to death or transplant was reported.
In the study, 185 patients were identified, 106 of which were males, 79 or which were females. The median age was 48.5 years (range: 28-72 years). The ethnic group breakdown was as follows: 66% Caucasian, 12% African American, 18% Hispanic, 4% Other. The mean MELD score was 18.5 points (range: 12-40).

[2] = tested on: patients admitted for overt HE; experiment: Chart review of hospital readmission in cirrhotic patients with overt HE; type: in vivo, human
Excerpt: The medical charts of outpatient and hospitalized patients admitted for overt HE were examined over a 137-month (about an 11.5-year) window. Information collected included gender, age, ethnicity, MELD score, post discharge HE management protocol, HE hospitalization number (frequency), time to readmission (days) and health insurance coverage. All patients suffering from infection, renal failure, gastrointestinal bleeding or […] were excluded. Group one consisted of patients discharged with lactulose (LAC) treatment. Group two consisted of patients discharged on rifaximin (RFX) treatment. Group three consisted of patients discharged on rifaximin treatment combined with lactulose treatment (RFX/LAC). […] The lactulose dose (LAC) was 30-120 cc/day, adjusted to acquire two to three loose to soft bowel movements. Time from discharge to readmission was measured. All patients were required to have a follow up visit after discharge and maintain family support and employment. Patients were broken down into compliant and non-compliant groups with outpatient follow-up. Eighty-seven (87) patients were identified as compliant, while forty-nine (49) patients were identified as non-compliant. In the compliant group, there were 51 males and 36 females, with an age range of between 32 and 68 years. The ethnic group breakdown for the compliant group was as follows: 66% Caucasian, 14% African American, 17% Hispanic and 3% other. The mean MELD score of the compliant group was 12.5 points (range: 8-17). In the non-compliant group, there were 29 males and 20 females, with an age range of between 28 and 66 years. The ethnic group breakdown for the non-compliant group was as follows: 64% Caucasian, 18% African American and 18% Hispanic. The mean MELD score of the non-compliant group was 11.5 points (range: 6-18).

[3] = tested on: compensated cirrhotic patients with SHE; experiment: Chart review of daily caloric intake in compensated cirrhotic patients with subclinical hepatic encephalopathy; type: in vivo, human
Excerpt: The medical charts were reviewed for non-hospitalized patients with compensated cirrhosis with and without the diagnosis of subclinical hepatic encephalopathy. […] All patients were reported to be at baseline Conn score Grade 0-1 HE, and employment status was identified. Information collected included; gender, age, ethnicity, weight/height, exercise and employment status, and daily calorie counts for 14 days. Daily caloric intake was registered with food consumption logs by patients and family. Normal caloric intake was considered at 1600 to 2200 calories/day depending upon dietary requirements. The daily caloric totals were conducted with the Calorie Smart calculator. […] There were 64 patients involved in the study: 29 females, 35 males, age (range 19-68), ethnicity (81% Caucasian, 8% African American, 8% Hispanic, 3% other), and mean MELD 8.5 points (range 6-13). There were no events of occult HE or hospitalizations throughout the review.

[4] = tested on: species of Staphylococcus, Streptococcus, Enterococcus, and Enterobacteriaceae; conditions: in vitro data; cited from earlier work
[5] = relative to lactulose monotherapy or combined therapy

## CO[C@H]1/C=C/O[C@@]2(C)Oc3c(C)c(O)c4c(O)c(c5c(nc6cc(C)ccn65)c4c3C2=O)NC(=O)/C(C)=C\C=C\[C@H](C)[C@H](O)[C@@H](C)[C@@H](O)[C@@H](C)[C@H](OC(C)=O)[C@@H]1C [RFX, Rifaximin]
[1]; addition of rifaximin, alone or in combination with lactulose, overt HE
  short- and long-term survival: improvement
[1]
  Survival Rates, One Year: 63%
  Survival Rates, Six Months: 76%
  Survival Rates, Three Years: 51%
[2]; [5]
  frequency of hospitalizations: less frequent
  time to hospital readmission: greater
[3]
  caloric intake (in words): appeared to maintain daily caloric intake
[4]
  in vitro antibacterial activity: active

## OC[C@H]1O[C@@H](O[C@@H]2[C@@H](CO)OC(O)(CO)[C@H]2O)[C@H](O)[C@@H](O)[C@H]1O (mixture of isomers) [LAC, Lactulose]
[1]
  Survival Rates, One Year: 46%
  Survival Rates, Six Months: 60%
  Survival Rates, Three Years: 29%
[2]; compliant and non-compliant populations, comparison of LAC, RFX, RFX/LAC groups
  number of hospital readmissions: highest
[3]
  adverse effect: bowel bloating culminating in a sensation of decreased appetite
  caloric intake (in words): marked decrease
